Activity calls are given as the source filed them. The calls are words filed in the database; no cut-off is given here.
Legend:
HL-60 [1] = assay: Growth inhibition of human HL60 cells after 96 hrs; format: functional, cell-based
HL-60 [2] = assay: Growth inhibition of human HL60 cells upto 100 uM after 96 hrs; format: functional, cell-based
HL-60 [3] = assay: Effect on PMA-stimulated human HL60 cells assessed as recovery of ROS metabolism; format: functional, cell-based
[4] = Reduction of clonogenic activity in Bcr-Abl expressing mouse 32D clone cells; conditions: read-out: LD50
Mus musculus [5] = organism: Mus musculus; assay: Inhibition of p210Bcr-Abl phosphorylation in gleevec-sensitive mouse 32D cells at 10 uM
HL-60 [6] = assay: Effect on zymosan-stimulated human HL60 cells assessed as recovery of ROS metabolism; format: functional, cell-based
Mus musculus [7] = organism: Mus musculus; assay: Inhibition of p210Bcr-Abl phosphorylation in gleevec-resistant mouse 32D cells at 10 uM
[8] = target: Proto-oncogene tyrosine-protein kinase Src (Homo sapiens) (UniProt P12931); assay: Inhibition of recombinant human c-Src
Proto-oncogene tyrosine-protein kinase Src (Homo sapiens), sequence (P12931 2-536 limits assumed): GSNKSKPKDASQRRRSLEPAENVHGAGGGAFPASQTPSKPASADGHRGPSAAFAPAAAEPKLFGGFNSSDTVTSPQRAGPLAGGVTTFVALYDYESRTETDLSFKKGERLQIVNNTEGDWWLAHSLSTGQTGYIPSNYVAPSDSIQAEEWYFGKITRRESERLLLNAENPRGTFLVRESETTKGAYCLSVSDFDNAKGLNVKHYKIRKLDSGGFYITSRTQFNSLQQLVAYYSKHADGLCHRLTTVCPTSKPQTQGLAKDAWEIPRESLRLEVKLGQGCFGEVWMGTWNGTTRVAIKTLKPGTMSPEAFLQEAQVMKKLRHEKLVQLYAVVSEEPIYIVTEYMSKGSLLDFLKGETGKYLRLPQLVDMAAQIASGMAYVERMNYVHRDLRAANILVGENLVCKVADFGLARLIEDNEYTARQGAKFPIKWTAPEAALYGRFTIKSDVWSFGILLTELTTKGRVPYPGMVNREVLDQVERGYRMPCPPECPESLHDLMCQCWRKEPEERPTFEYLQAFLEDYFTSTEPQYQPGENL

Row | SMILES | Activity (HL-60 [1]) | Activity (HL-60 [2]) | Activity (HL-60 [3]) | CC50 [4] [nM] | Activity (Mus musculus [5]) | Activity (HL-60 [6]) | Activity (Mus musculus [7]) | Activity [8]
1 | O=C(Nc1nnc(SCc2ccc(F)cc2)s1)c1ccc(F)cc1 | Active | inactive | Active | 2200 | Active | Active | Active | –
2 | O=C(Nc1nnc(CCc2ccccc2)s1)c1ccc(I)cc1 | – | – | – | – | – | – | – | inactive

Reference: ChEMBL document CHEMBL1142311, “Discovery and SAR of 1,3,4-thiadiazole derivatives as potent Abl tyrosine kinase inhibitors and cytodifferentiating agents” (Bioorg Med Chem Lett, 2008)
